The target of one test is T1, EGFR (Homo sapiens, UniProt P00533).
T1 construct: endogenous in cells; host or cells: DU145
Put plainly: Western blot of EGFR activation by EGF in DU145 cells. In kind it is cell-based. The conditions noted are these: 4 μM DIDS or 25 μM H2DIDS; DU145, 100 ng/ml EGF 20 min. As for the experimental part: Western blot analysis: Cells were grown to ˜70% confluency prior to treatment. Cells were serum-starved in serum-free media for 30 minutes prior to treatment in complete media or serum-free media for the indicated times. Cell lysates were collected in Laemmli (125 mM Tris, 4% SDS, 0.01% bromophenol blue, 30% sucrose) containing 0.5% β-mercaptoethanol and boiled ˜8 minutes. Primary antibodies include: phospho-c-Met (Y1234/1235), phospho-Akt (S473), pEGFR […], pIGF-IRβ (Y1135/1136) (Cell Signaling Technology; Beverly, Mass.); α-actin (Sigma-Aldrich), c-Met (C-28) (Life Technologies). Secondary antibodies include: horseradish peroxidase-conjugated anti-rabbit and anti-mouse (GE Healthcare; Pittsburgh, Pa.). ECL 2 was used for chemiluminescent detection (Thermo Scientific; Rockford, Ill.). Densitometry was calculated using ImageJ (NIH).
Background: Immunoblotting shows a protein as a band on a membrane.

Test [1] has as its system DU145 cells. The test is described as follows: Wound healing. In kind it is cell-based. As to the method: (§1) Cells were fixed and stained for actin. Representative images are shown. […] Data are shown as mean±S.E.M.; n=3.
For invasion (FIGS. 4C and 4D), wounded cells were overlaid with Matrigel diluted 1:5 in serum-free media; n=3.
Wound healing and invasion: DU145 cells were grown to ˜100% confluency prior to wounding with the IncuCyte™ WoundMaker™ (Essen Bioscience; Ann Arbor, Mich.) and washed once with complete media. For invasion, cells were covered with Matrigel diluted 1:5 in serum-free RPMI following wounding. […] Images were taken every 4 hours with the IncuCyte™ ZOOM imaging system (Essen Bioscience). Quadruplicate replicates were used in each experiment. Data are presented as percent wound density ±standard error of the mean (S.E.M.).

Test [2] has as its system DU145 cells. The test is described as follows: Scattering assay. The format is cell-based. The conditions noted are these: 4 μM DIDS or 25 μM H2DIDS. As to the method: as §1
Cells were fixed and stained for actin. Representative images are shown.
Scattering assay: DU145 cells were grown to ˜50% confluency. […] Cells were fixed with 4% paraformaldehyde and stained with Oregon Green 488 phalloidin (Invitrogen; Carlsbad, Calif.). Images were acquired on an Eclipse TE300 inverted microscope (Nikon; Tokyo, Japan) with NIS Elements version 4.13.04 software. Presented images were taken using a 10× objective.

Another test concerns the target c-Met M1250T (M1268T) (Homo sapiens, UniProt P08581, M1250T). Put plainly: Phosphorylation inhibition assay (Z′-LYTE Kinase Assay-Tyr6 Peptide), mutant c-Met. In kind it is biochemical. The conditions noted are these: cell-free kinase assay, 200 μM ATP. As for the experimental part: (§2) Western blot was used to analyze pMet expression. […] Western blot was used to analyze the indicated proteins.
(§3) Phosphorylation inhibition assay: Z′-LYTE™ Kinase Assay-Tyr6 Peptide kit (Invitrogen) was used to assess the ability of tested compounds to inhibit c-Met phosphorylation. […] After 1 hour incubation at room temperature, 10 μl development solution containing site-specific protease was added to each well. Incubation was continued for 1 hour. The reaction was then stopped, and the fluorescent signal ratio of 445 nm (coumarin)/520 nm (fluorescein) was determined on a plate reader (BioTek FLx800™), which reflects the peptide substrate cleavage status and/or the kinase inhibitory activity in the reaction. […] The IC50 value for each compound was calculated by nonlinear regression of log concentration versus % c-Met phosphorylation ±S.E.M., implemented in GraphPad Prism version 5.0 (GraphPad Software, CA, USA).

In the next test the test system is F0F1-ATP synthase. The note with it: cited from earlier work.
The target of another test is wild-type c-Met (Homo sapiens, UniProt P08581). Put plainly: Phosphorylation inhibition assay (Z′-LYTE Kinase Assay-Tyr6 Peptide), wild-type c-Met. In kind it is biochemical. The note with it: cell-free kinase assay, 200 μM ATP; read-out: IC50, activation of wild-type c-Met. As to the method:
as §2, §3

Test [3] deals with matrix metalloproteinase release. The conditions noted are these: cited from earlier work.
In a further test the test system is succinic dehydrogenase. The note with it: cited from earlier work.

SMILES strings stand for the structures. pIC50: −log10 of the molar value.

As usually defined, the pIC50 is the IC50 on a negative log10 scale, so that one unit is a factor of ten.

Chain of c-Met M1250T (M1268T) (P08581 956-1390 M1250T limits assumed): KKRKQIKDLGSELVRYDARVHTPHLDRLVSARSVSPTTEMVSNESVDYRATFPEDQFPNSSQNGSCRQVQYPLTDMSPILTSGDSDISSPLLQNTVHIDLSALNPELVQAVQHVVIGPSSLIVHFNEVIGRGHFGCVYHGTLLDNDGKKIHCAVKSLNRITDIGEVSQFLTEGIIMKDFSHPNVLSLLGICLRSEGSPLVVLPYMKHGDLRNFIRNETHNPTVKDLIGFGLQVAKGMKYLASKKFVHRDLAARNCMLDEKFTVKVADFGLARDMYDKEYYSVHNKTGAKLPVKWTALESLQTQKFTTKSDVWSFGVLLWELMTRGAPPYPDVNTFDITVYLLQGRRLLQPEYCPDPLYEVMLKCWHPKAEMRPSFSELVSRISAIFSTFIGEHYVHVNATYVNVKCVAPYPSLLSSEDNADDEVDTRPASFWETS
Chain of wild-type c-Met (P08581 25-1390): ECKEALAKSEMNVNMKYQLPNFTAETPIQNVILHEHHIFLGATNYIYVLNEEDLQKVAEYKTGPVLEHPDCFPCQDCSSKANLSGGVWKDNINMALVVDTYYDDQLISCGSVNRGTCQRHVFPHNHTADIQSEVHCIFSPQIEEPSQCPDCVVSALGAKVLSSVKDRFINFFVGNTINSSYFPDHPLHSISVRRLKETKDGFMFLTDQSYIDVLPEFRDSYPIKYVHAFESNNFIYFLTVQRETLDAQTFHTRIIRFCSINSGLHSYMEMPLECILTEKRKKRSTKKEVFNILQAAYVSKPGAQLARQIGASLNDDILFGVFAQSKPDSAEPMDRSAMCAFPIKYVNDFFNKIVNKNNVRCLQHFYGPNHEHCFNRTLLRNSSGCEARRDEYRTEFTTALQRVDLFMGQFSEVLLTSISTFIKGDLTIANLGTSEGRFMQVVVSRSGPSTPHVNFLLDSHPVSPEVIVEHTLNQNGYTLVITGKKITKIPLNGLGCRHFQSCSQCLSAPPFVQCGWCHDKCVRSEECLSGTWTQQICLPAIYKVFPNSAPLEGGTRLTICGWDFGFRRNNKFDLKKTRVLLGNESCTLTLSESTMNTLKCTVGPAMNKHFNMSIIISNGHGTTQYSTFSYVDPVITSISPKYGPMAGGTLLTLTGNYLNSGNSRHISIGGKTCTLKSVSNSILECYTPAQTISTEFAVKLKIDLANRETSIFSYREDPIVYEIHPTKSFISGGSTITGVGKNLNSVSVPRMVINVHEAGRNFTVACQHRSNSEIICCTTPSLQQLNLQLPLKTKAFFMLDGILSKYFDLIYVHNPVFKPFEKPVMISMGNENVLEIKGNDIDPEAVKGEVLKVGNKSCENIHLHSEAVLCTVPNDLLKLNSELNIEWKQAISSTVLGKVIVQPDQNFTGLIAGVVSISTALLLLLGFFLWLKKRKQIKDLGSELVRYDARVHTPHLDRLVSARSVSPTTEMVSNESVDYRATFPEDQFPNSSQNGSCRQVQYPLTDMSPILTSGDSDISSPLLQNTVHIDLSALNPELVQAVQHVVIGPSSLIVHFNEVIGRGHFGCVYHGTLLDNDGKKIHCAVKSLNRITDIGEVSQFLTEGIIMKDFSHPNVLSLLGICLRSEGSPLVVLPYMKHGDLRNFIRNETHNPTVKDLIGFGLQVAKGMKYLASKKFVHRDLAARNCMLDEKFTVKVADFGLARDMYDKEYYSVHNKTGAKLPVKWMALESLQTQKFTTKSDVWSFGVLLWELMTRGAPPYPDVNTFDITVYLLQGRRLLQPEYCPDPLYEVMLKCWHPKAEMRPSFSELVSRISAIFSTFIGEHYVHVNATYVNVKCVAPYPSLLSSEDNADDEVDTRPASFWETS
T1 sequence (P00533 25-1210): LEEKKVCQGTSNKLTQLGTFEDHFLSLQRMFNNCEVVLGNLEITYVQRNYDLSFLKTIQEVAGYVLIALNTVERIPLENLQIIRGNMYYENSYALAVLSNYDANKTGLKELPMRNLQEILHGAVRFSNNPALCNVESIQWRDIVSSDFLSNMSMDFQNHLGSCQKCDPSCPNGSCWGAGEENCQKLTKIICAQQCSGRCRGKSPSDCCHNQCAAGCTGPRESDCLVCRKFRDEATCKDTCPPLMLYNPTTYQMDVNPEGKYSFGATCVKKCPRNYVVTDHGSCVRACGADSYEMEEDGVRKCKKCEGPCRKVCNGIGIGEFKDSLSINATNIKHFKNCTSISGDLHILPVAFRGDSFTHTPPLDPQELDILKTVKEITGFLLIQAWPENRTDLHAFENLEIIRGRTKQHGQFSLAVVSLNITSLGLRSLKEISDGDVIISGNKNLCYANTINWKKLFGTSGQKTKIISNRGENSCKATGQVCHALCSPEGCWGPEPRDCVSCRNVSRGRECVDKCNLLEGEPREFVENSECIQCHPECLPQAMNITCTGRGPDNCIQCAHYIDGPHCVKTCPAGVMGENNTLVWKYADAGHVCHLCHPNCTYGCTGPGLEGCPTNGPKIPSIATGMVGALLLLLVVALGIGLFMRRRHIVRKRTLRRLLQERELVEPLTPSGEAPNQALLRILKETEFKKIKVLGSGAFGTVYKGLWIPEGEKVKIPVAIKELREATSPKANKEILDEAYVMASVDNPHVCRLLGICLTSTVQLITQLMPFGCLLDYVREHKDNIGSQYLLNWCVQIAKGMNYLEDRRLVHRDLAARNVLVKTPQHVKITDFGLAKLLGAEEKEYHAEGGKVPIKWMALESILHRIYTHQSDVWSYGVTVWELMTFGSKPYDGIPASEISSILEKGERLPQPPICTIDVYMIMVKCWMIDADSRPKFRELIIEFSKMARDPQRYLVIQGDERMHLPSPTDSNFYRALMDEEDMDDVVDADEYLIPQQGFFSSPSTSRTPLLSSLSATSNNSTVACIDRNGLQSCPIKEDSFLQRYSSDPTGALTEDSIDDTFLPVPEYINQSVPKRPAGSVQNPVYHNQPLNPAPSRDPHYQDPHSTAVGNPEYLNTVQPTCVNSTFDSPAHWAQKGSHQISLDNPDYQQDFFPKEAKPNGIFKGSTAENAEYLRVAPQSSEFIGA

With `O=S(=O)(O)c1cc(N=C=S)ccc1C=Cc1ccc(N=C=S)cc1S(=O)(=O)O` [DIDS, 4,4′-Diisothiocyanatostilbene-2,2′-disulfonic acid], the EGFR activation result on EGFR is “do not significantly reduce”. For the same molecule, the HGF-induced wound healing result with DU145 cells [1] (4 μM DIDS or 25 μM H2DIDS, 33 ng/ml HGF) is “significantly reduced”. Besides, the EGF-mediated wound healing result in the test on DU145 cells [1] (4 μM DIDS or 25 μM H2DIDS, 100 ng/ml EGF) is reported as “minimal effects”. For the same molecule, in the test on DU145 cells [1] (indicated concentrations, 33 ng/mL HGF), the “HGF-induced wound healing, dose response” value is “reduce HGF-induced wound healing in a dose response manner”. In the test on DU145 cells [2] (33 ng/ml HGF overnight), the HGF-induced cell scattering result is “able to reduce HGF-induced”. For the same molecule, the EGF-induced cell scattering entry with DU145 cells [2] (100 ng/ml EGF overnight) is recorded as “not EGF-induced”. Moreover, the pIC50 against c-Met M1250T (M1268T) was 6.43; at wild-type c-Met, 6.52. In the test with F0F1-ATP synthase, the “concentration reducing activity of F0F1-ATP synthase” value was “low micromolar concentrations”. In addition, the “concentration inhibiting matrix metalloproteinase release” value in test [3] was not below 400 µM. In the test on succinic dehydrogenase, the “concentration reducing activity of succinic dehydrogenase” value is “low micromolar concentrations”.

The record behind these values is patent US10980765B2, “Isothiocyanatostilbenes as a novel method and product for treating cancer” (BOARD OF SUPERVISORS OF LOUISIANA STATE UNIVERSITY AND …, priority 2015, dated 2021).
